In brackets after ≈: the same amount, converted by molar mass. Each block holds one molecule with its values, some of them ahead of it. Activity calls are given as the source filed them. The calls are words filed in the database; no cut-off is given here.
How the values were obtained:
Staphylococcus aureus [1] = experiment: microbe, parasite or virus in culture; type: functional; conditions: ATCC 6538, 18 h
Escherichia coli [2] = experiment: microbe, parasite or virus in culture; type: functional; conditions: ATCC 25922, 18 h
Pseudomonas aeruginosa [3] = experiment: microbe, parasite or virus in culture; type: functional; conditions: ATCC 27853, 18 h
Escherichia coli [4] = experiment: microbe, parasite or virus in culture; type: functional; conditions: NCTC 8196, 18 h
Enterococcus hirae = experiment: microbe, parasite or virus in culture; type: functional; conditions: ATCC 10541, 18 h
Staphylococcus aureus [5] = experiment: microbe, parasite or virus in culture; type: functional; conditions: NCTC 4163, 18 h
Pseudomonas aeruginosa [6] = experiment: microbe, parasite or virus in culture; type: functional; conditions: ATCC 15442, 18 h
[7] = tested on: Staphylococcus epidermidis; experiment: microbe, parasite or virus in culture; type: functional; conditions: ATCC 12228, 18 h
Staphylococcus aureus [8] = experiment: microbe, parasite or virus in culture; type: functional; conditions: ATCC 29213, 18 h
SW-620 [9] = experiment: Cytotoxicity against human SW620 cells at 20 uM incubated for 72 hrs by LDH release assay (reference value: 4.2 %); type: functional
SW480 [10] = experiment: Cytotoxicity against human SW480 cells at 60 uM incubated for 72 hrs by LDH release assay (reference value: […]); type: functional
SW480 [11] = experiment: Cytotoxicity against human SW480 cells at 10 uM incubated for 72 hrs by LDH release assay (reference value: […]); type: functional
PC-3 [12] = experiment: Cytotoxicity against human PC3 cells at 10 uM incubated for 72 hrs by LDH release assay (reference value: […]); type: functional
SW-620 [13] = experiment: Induction of apoptosis in human SW620 cells at antiproliferative IC50 incubated for 72 hrs by annexin V FITC and PI staining based flow cytometry; type: functional
PC-3 [14] = experiment: Cytotoxicity against human PC3 cells at 60 uM incubated for 72 hrs by LDH release assay (reference value: […]); type: functional
SW-620 [15] = experiment: Cytotoxicity against human SW620 cells at 40 uM incubated for 72 hrs by LDH release assay (reference value: 4.2 %); type: functional
SW-620 [16] = experiment: Cytotoxicity against human SW620 cells at 10 uM incubated for 72 hrs by LDH release assay (reference value: 4.2 %); type: functional
PC-3 [17] = experiment: Induction of apoptosis in human PC3 cells assessed as necrotic cells at antiproliferative IC50 incubated for 72 hrs by annexin V FITC and PI staining based flow cytometry (reference value: […]); type: functional
SW-620 [18] = experiment: Reduction of IL-6 level in human SW620 cells at antiproliferative IC50 incubated for 72 hrs by ELISA relative to control; type: functional
HaCaT [19] = experiment: Induction of apoptosis in human HaCaT cells at antiproliferative IC50 incubated for 72 hrs by annexin V FITC and PI staining based flow cytometry; type: cell-based
PC-3 [20] = experiment: Induction of apoptosis in human PC3 cells assessed as viable cells at antiproliferative IC50 incubated for 72 hrs by annexin V FITC and PI staining based flow cytometry (reference value: 95.1 %); type: functional
PC-3 [21] = experiment: Induction of apoptosis in human PC3 cells assessed as late apoptotic cells at antiproliferative IC50 incubated for 72 hrs by annexin V FITC and PI staining based flow cytometry (reference value: […]); type: functional
SW480 [22] = experiment: Reduction of IL-6 level in human SW480 cells at antiproliferative IC50 incubated for 72 hrs by ELISA relative to control; type: functional
PC-3 [23] = experiment: Induction of apoptosis in human PC3 cells assessed as early apoptotic cells at antiproliferative IC50 incubated for 72 hrs by annexin V FITC and PI staining based flow cytometry (reference value: […]); type: functional
SW-620 [24] = experiment: Cytotoxicity against human SW620 cells at 60 uM incubated for 72 hrs by LDH release assay (reference value: 4.2 %); type: functional
SW480 [25] = experiment: Cytotoxicity against human SW480 cells at 20 uM incubated for 72 hrs by LDH release assay (reference value: […]); type: functional
PC-3 [26] = experiment: Cytotoxicity against human PC3 cells at 20 uM incubated for 72 hrs by LDH release assay (reference value: […]); type: functional
SW480 [27] = experiment: Cytotoxicity against human SW480 cells at 40 uM incubated for 72 hrs by LDH release assay (reference value: […]); type: functional
PC-3 [28] = experiment: Cytotoxicity against human PC3 cells at 40 uM incubated for 72 hrs by LDH release assay (reference value: […]); type: functional
HaCaT [29] = experiment: Reduction of IL-6 level in human HaCaT cells at antiproliferative IC50 incubated for 72 hrs by ELISA relative to control; type: cell-based
PC-3 [30] = experiment: Antitumor activity against human PC3 cells assessed as reduction in IL-6 level at antiproliferative IC50 incubated for 72 hrs by ELISA relative to control; type: functional
SW480 [31] = experiment: Antiproliferative activity against human SW480 cells assessed as reduction in cell viability incubated for 72 hrs by MTT assay; type: functional, cell-based; conditions: SW480, 72 h
HaCaT [32] = experiment: Cytotoxicity against human HaCaT cells assessed as reduction in cell viability incubated for 72 hrs by MTT assay; type: cell-based

SMILES: O=C(O)c1cn(C2CC2)c2cc(N3CCNCC3)c(F)cc2c1=O [CIPROFLOXACIN]
Activity (SW-620 [9]): 8.9% | Activity (SW480 [10]): 15% | Activity (SW480 [11]): 12% | Activity (PC-3 [12]): 14% | MIC (Staphylococcus aureus [1]): 0.5 µg/mL (≈ 1.51 µM) | Activity (SW-620 [13]): 31.4 - 39.2% | Activity (PC-3 [14]): 18% | Activity (SW-620 [15]): 9.1% | Activity (SW-620 [16]): 8.1% | Activity (PC-3 [17]): 3.9% | Activity (SW-620 [18]): Active | Activity (HaCaT [19]): 6.2 to 12% | Activity (PC-3 [20]): 59.7% | Activity (PC-3 [21]): 31.1% | Activity (SW480 [22]): Active | Activity (PC-3 [23]): 5.3% | MIC (Enterococcus hirae): 8 µg/mL (≈ 24.1 µM) | Activity (SW-620 [24]): 9.3% | Activity (SW480 [25]): 14.2% | MIC (Staphylococcus aureus [5]): 0.25 µg/mL (≈ 0.754 µM) | Activity (PC-3 [26]): 16.5% | Activity (SW480 [27]): 14.5% | MIC [7]: 0.25 µg/mL (≈ 0.754 µM) | MIC (Staphylococcus aureus [8]): 0.5 µg/mL (≈ 1.51 µM) | Activity (PC-3 [28]): 17.5% | Activity (HaCaT [29]): Active

SMILES: CCCCCCCC/C=C/CCCCCCCC(=O)O [ELAIDIC ACID]
MIC (Staphylococcus aureus [1]): 512 µg/mL (≈ 1810 µM) | MIC (Escherichia coli [2]): 512 µg/mL (≈ 1810 µM) | MIC (Pseudomonas aeruginosa [3]): 512 µg/mL (≈ 1810 µM) | MIC (Escherichia coli [4]): 512 µg/mL (≈ 1810 µM) | MIC (Enterococcus hirae): 512 µg/mL (≈ 1810 µM) | MIC (Staphylococcus aureus [5]): 512 µg/mL (≈ 1810 µM) | MIC (Pseudomonas aeruginosa [6]): 512 µg/mL (≈ 1810 µM) | MIC [7]: 512 µg/mL (≈ 1810 µM) | MIC (Staphylococcus aureus [8]): 512 µg/mL (≈ 1810 µM)

SMILES: CC/C=C\C/C=C\C/C=C\CCCCCCCC(=O)O [LINOLENIC ACID]
MIC (Staphylococcus aureus [1]): 128 µg/mL (≈ 460 µM) | MIC (Escherichia coli [2]): > 512 µg/mL | MIC (Pseudomonas aeruginosa [3]): 512 µg/mL (≈ 1840 µM) | MIC (Escherichia coli [4]): > 512 µg/mL | MIC (Enterococcus hirae): 512 µg/mL (≈ 1840 µM) | MIC (Staphylococcus aureus [5]): 128 µg/mL (≈ 460 µM) | MIC (Pseudomonas aeruginosa [6]): 512 µg/mL (≈ 1840 µM) | MIC [7]: 512 µg/mL (≈ 1840 µM) | MIC (Staphylococcus aureus [8]): 128 µg/mL (≈ 460 µM)

SMILES: C/C=C/C=C/C(=O)O [SORBIC ACID]
MIC (Staphylococcus aureus [1]): > 512 µg/mL | MIC (Escherichia coli [2]): 512 µg/mL (≈ 4570 µM) | MIC (Pseudomonas aeruginosa [3]): 512 µg/mL (≈ 4570 µM) | MIC (Escherichia coli [4]): > 512 µg/mL | MIC (Enterococcus hirae): 512 µg/mL (≈ 4570 µM) | MIC (Staphylococcus aureus [5]): > 512 µg/mL | MIC (Pseudomonas aeruginosa [6]): 512 µg/mL (≈ 4570 µM) | MIC [7]: > 512 µg/mL | MIC (Staphylococcus aureus [8]): > 512 µg/mL

The next lines start with results.

MIC (Staphylococcus aureus [1]): > 512 µg/mL | MIC (Escherichia coli [2]): 512 µg/mL (≈ 3040 µM) | MIC (Pseudomonas aeruginosa [3]): 512 µg/mL (≈ 3040 µM) | MIC (Escherichia coli [4]): > 512 µg/mL | MIC (Enterococcus hirae): 512 µg/mL (≈ 3040 µM) | MIC (Staphylococcus aureus [5]): > 512 µg/mL | MIC (Pseudomonas aeruginosa [6]): 512 µg/mL (≈ 3040 µM) | MIC [7]: 512 µg/mL (≈ 3040 µM) | MIC (Staphylococcus aureus [8]): > 512 µg/mL
SMILES: CC(C)=CCC/C(C)=C/C(=O)O

MIC (Staphylococcus aureus [1]): > 512 µg/mL | MIC (Escherichia coli [2]): > 512 µg/mL | MIC (Pseudomonas aeruginosa [3]): > 512 µg/mL | MIC (Escherichia coli [4]): > 512 µg/mL | MIC (Enterococcus hirae): > 512 µg/mL | MIC (Staphylococcus aureus [5]): > 512 µg/mL | MIC (Pseudomonas aeruginosa [6]): > 512 µg/mL | MIC [7]: > 512 µg/mL | MIC (Staphylococcus aureus [8]): > 512 µg/mL
SMILES: C/C=C/C(=O)O [CROTONIC ACID]

IC50 (SW480 [31]): 750 nM
SMILES: COc1cccc2c1C(=O)c1c(O)c3c(c(O)c1C2=O)C[C@@](O)(C(=O)CO)C[C@@H]3O[C@H]1C[C@H](N)[C@H](O)[C@H](C)O1 [DOXORUBICIN]
Activity (PC-3 [30]): Active | Activity (SW-620 [18]): Active | IC50 (HaCaT [32]): 290 nM | Activity (SW480 [22]): Active | Activity (HaCaT [29]): Active

MIC (Staphylococcus aureus [1]): 128 µg/mL (≈ 378 µM) | MIC (Escherichia coli [2]): > 512 µg/mL | MIC (Pseudomonas aeruginosa [3]): 512 µg/mL (≈ 1510 µM) | MIC (Escherichia coli [4]): 512 µg/mL (≈ 1510 µM) | MIC (Enterococcus hirae): 64 µg/mL (≈ 189 µM) | MIC (Staphylococcus aureus [5]): > 512 µg/mL | MIC (Pseudomonas aeruginosa [6]): 512 µg/mL (≈ 1510 µM) | MIC [7]: 256 µg/mL (≈ 756 µM) | MIC (Staphylococcus aureus [8]): > 512 µg/mL
SMILES: CCCCCCCC/C=C\CCCCCCCCCCCC(=O)O [ERUCIC ACID]

MIC (Staphylococcus aureus [1]): 256 µg/mL (≈ 906 µM) | MIC (Escherichia coli [2]): 512 µg/mL (≈ 1810 µM) | MIC (Pseudomonas aeruginosa [3]): 256 to 512 µg/mL (≈ 906 to 1810 µM) | MIC (Escherichia coli [4]): 512 µg/mL (≈ 1810 µM) | MIC (Enterococcus hirae): 128 to 256 µg/mL (≈ 453 to 906 µM) | MIC (Staphylococcus aureus [5]): 256 to 512 µg/mL (≈ 906 to 1810 µM) | MIC (Pseudomonas aeruginosa [6]): 512 µg/mL (≈ 1810 µM) | MIC [7]: 512 µg/mL (≈ 1810 µM) | MIC (Staphylococcus aureus [8]): 256 to 512 µg/mL (≈ 906 to 1810 µM)
SMILES: CCCCCCCC/C=C\CCCCCCCC(=O)O [OLEIC ACID]

MIC (Staphylococcus aureus [1]): 512 µg/mL (≈ 2000 µM) | MIC (Escherichia coli [2]): 512 µg/mL (≈ 2000 µM) | MIC (Pseudomonas aeruginosa [3]): 512 µg/mL (≈ 2000 µM) | MIC (Escherichia coli [4]): 512 µg/mL (≈ 2000 µM) | MIC (Enterococcus hirae): 512 µg/mL (≈ 2000 µM) | MIC (Staphylococcus aureus [5]): 512 µg/mL (≈ 2000 µM) | MIC (Pseudomonas aeruginosa [6]): 512 µg/mL (≈ 2000 µM) | MIC [7]: 512 µg/mL (≈ 2000 µM) | MIC (Staphylococcus aureus [8]): 512 µg/mL (≈ 2000 µM)
SMILES: CCCCCCCCCCCCCCCC(=O)O [PALMITIC ACID]

From ChEMBL document CHEMBL4312013 (Eur J Med Chem, 2020)
